# Experimental data: US20040018253A1, “Use of CYP2D6 inhibitors in combination therapies” (priority 1999, published 2004)
# Where two headings read alike, the source gives them in different places.
# Tests used:
# CYP2D6 [1] = target: T1, CYP2D6 (Homo sapiens, UniProt P10635); experiment: CYP2D6 catalyzed metabolism, Michaelis-Menten KM
# [2] = Human pharmacokinetics of CYP2D6 substrates (half-life, oral bioavailability, hepatic extraction)
# CYP2D6 [3] = target: T1, CYP2D6
# [4] = in vivo
# CYP = details: cited from earlier work
# [5] = after oral administration of imipramine; extensive metabolizers; cited from earlier work
# [6] = increasing dose; not observed in poor metabolizers; cited from earlier work
# CYP2D6 [7] = target: T1, CYP2D6; details: in vivo, via inhibition of CYP2D6; cited from earlier work
# T1 sequence (P10635 whole entry): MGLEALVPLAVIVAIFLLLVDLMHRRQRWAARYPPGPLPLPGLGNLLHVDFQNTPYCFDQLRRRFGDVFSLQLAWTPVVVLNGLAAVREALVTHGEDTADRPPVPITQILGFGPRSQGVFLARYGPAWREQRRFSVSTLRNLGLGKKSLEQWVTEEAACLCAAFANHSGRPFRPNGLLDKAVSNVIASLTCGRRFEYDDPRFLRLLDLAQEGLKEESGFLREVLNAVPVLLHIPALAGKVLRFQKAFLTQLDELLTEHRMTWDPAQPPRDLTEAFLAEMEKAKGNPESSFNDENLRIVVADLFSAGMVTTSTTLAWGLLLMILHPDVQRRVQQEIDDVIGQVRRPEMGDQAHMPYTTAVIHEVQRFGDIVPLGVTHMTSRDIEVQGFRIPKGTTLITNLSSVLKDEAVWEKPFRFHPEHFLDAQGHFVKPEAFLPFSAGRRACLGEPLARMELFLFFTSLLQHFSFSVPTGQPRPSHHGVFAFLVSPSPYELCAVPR
structure (smiles),measurement,setting,value
"C[C@@H]([C@@H](O)c1ccc(O)cc1)N1CCC(O)(c2ccccc2)CC1 [(1S,2S)-1-(4-hydroxyphenyl)-2-(4-hydroxy-4-phenylpiperidin-1-yl)-1-propanol]",Km,CYP2D6 [1]; human,3000 to 4000 nM
same,half-life,[2]; in vivo,180 to 240 min
"COc1ccccc1CN[C@H]1CCCN[C@H]1c1ccccc1 [(2S,3S)-2-phenyl-3-(2-methoxyphenyl)-methylaminopiperidine]",Km,CYP2D6 [3],~1000 nM
same,human half-life,[4]; human,about 4.7 hours
same,human oral bioavailability,"[4]; human, po",1.0%
same,hepatic extraction,[4]; iv,exceeds 90%
"O=c1c(-c2c(O)cc(O)c3c(=O)cc(-c4ccc(O)cc4)oc23)c(-c2ccc(O)cc2)oc2cc(O)cc(O)c12 [I3, II8-biapigenin]",CYP inhibitory activity,CYP,exhibit CYP inhibitory activity
CNCCCN1c2ccccc2CCc2ccccc21 [desipramine],range of steady state plasma concentrations,[5],20 fold
Cc1cc(O)c2c(=O)c3c(O)cc(O)c4c5c(O)cc(O)c6c(=O)c7c(O)cc(C)c8c1c2c(c34)c(c78)c65 [hypericin],CYP inhibitory activity,CYP,exhibit CYP inhibitory activity
CN(C)CCCN1c2ccccc2CCc2ccccc21 [imipramine],range of steady state plasma concentrations,[5],20 fold
Fc1ccc([C@@H]2CCNC[C@H]2COc2ccc3c(c2)OCO3)cc1 [paroxetine],dose-exposure relationship,[6],supraproportional
O=c1c(O)c(-c2ccc(O)c(O)c2)oc2cc(O)cc(O)c12 [quercetin],CYP inhibitory activity,CYP,exhibit CYP inhibitory activity
C=C[C@H]1C[N@@]2CC[C@H]1C[C@@H]2[C@@H](O)c1ccnc2ccc(OC)cc12 [quinidine],effect on metabolizer phenotype,CYP2D6 [7],converting an extensive metabolizer to the poor metabolizer phenotype
"O=C1CCC(=O)N1C[C@H]1CC[C@H]2CN(c3ncccn3)CCN2C1 [sunipetron, (7S,9S)-2-(2-pyrimidyl)-7-(succinamidomethyl)-prehydro-1H-pyrido-[1,2-a]pyrazine]",Km,CYP2D6 [1]; CYP2D6 substrate,~1000 nM
same,human oral bioavailability,[2]; oral,4.6%
